How the values were obtained:
HT-29 [1] = test: Antitumor activity against human HT-29 cells xenografted in po dosed BALB/cA nude mouse assessed as inhibition of tumor growth administered 11 days after tumor implantation qd for 14 days; assay type: functional, organism-based
HT-29 [2] = test: animal or person; conditions: Mus musculus, HT-29, po, read-out: TGI
Description: Antitumor activity against human HT-29 cells xenografted in BALB/cA nude mouse assessed as inhibition of tumor growth at 30 mg/kg, po administered 11 days after tumor implantation qd for 14 days

[3] = biological target: Mast/stem cell growth factor receptor Kit (Homo sapiens, UniProt P10721); test: Inhibition of c-Kit after 30 mins by ELISA
Chain of Mast/stem cell growth factor receptor Kit (P10721 whole entry): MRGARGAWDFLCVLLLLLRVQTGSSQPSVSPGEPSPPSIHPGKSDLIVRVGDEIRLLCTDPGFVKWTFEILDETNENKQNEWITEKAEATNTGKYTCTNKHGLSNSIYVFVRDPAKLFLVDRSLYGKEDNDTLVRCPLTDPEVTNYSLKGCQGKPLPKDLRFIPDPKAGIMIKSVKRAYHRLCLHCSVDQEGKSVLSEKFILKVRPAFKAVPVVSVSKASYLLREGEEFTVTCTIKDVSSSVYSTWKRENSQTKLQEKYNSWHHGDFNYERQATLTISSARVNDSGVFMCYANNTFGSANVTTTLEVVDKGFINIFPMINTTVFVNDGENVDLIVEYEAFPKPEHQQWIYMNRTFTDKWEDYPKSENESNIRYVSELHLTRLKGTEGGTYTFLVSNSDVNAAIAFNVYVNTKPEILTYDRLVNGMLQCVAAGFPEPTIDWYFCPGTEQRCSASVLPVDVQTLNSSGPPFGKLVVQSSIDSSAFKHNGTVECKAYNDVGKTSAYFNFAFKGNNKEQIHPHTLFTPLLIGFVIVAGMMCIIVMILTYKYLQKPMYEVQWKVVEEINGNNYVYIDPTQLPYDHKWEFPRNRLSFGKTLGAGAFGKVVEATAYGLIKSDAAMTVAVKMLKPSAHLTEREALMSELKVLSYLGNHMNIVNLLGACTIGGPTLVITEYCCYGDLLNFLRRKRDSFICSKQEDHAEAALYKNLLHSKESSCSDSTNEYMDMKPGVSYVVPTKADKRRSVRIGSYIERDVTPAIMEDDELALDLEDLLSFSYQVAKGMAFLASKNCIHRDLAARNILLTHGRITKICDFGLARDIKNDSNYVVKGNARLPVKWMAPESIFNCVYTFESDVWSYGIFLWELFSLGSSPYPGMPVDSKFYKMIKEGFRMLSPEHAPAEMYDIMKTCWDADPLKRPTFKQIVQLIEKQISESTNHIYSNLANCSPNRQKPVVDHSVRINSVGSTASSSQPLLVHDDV

[4] = biological target: Platelet-derived growth factor receptor beta (Homo sapiens, UniProt P09619); test: Inhibition of human PDGFRbeta after 30 mins by ELISA
Chain of Platelet-derived growth factor receptor beta (P09619 whole entry): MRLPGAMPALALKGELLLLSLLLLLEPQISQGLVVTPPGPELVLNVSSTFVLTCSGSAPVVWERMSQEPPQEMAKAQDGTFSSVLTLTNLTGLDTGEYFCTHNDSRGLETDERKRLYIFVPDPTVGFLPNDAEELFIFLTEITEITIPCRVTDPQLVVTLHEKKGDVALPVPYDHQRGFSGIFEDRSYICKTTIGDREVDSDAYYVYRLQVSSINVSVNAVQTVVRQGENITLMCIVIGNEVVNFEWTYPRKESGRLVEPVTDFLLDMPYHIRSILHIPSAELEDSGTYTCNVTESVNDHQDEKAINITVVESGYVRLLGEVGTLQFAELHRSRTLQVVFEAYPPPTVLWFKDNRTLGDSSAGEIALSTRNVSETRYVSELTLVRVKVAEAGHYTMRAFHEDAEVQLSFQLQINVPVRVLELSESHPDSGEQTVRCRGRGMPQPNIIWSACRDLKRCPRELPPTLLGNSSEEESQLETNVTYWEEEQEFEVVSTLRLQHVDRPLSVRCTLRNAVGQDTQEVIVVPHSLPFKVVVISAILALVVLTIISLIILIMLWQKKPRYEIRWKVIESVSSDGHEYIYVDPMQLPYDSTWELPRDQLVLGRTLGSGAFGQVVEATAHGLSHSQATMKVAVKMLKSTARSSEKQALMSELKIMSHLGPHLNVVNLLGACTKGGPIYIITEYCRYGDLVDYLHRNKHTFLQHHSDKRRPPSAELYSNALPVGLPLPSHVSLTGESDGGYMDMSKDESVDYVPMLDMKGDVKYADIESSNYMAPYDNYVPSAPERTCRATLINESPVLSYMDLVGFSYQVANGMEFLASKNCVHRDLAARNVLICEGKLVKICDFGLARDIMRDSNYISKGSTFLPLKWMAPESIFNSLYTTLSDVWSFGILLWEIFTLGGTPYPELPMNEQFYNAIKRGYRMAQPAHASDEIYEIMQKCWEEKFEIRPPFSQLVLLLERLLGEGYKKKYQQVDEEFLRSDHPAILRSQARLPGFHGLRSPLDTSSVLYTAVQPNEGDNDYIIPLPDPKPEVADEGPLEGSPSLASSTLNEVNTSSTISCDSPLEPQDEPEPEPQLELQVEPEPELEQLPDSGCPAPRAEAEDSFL

[5] = Cmax in Sprague-Dawley rat at 10 mg/kg, po and 10 mg/kg iv; assay type: ADME, organism-based; conditions: in vivo
Rattus norvegicus = test: AUC in Sprague-Dawley rat at 40 mg/kg, po; assay type: ADME, organism-based, Plasma; set-up: dose 40 mg/kg, route oral; conditions: in vivo
[6] = Half life in Sprague-Dawley rat at 10 mg/kg, po and 10 mg/kg iv; assay type: ADME, organism-based; conditions: in vivo
[7] = Clearance in Sprague-Dawley rat at 10 mg/kg, po and 10 mg/kg iv; assay type: ADME, organism-based; conditions: in vivo
[8] = Volume of distribution in Sprague-Dawley rat at 10 mg/kg, po and 10 mg/kg iv; assay type: ADME, organism-based; conditions: in vivo
[9] = Oral bioavailability in Sprague-Dawley rat at 10 mg/kg; assay type: ADME, organism-based; conditions: in vivo
HT-29 [10] = test: animal or person; conditions: Mus musculus, HT-29, po, read-out: TGI; remark: listed apart in the source
Description: Antitumor activity against human HT-29 cells xenografted in BALB/cA nude mouse assessed as inhibition of tumor growth at 10 mg/kg, po administered 11 days after tumor implantation qd for 14 days

Mus musculus [11] = test: Toxicity in human HT-29 cells xenografted BALB/cA nude mouse assessed as weight loss at up to 30 mg/kg, po administered 11 days after tumor implantation qd for 14 days; assay type: organism-based; set-up: dose 30 mg/kg, route oral; conditions: in vivo
Mus musculus [12] = test: Toxicity in human HT-29 cells xenografted BALB/cA nude mouse assessed as mortality at up to 30 mg/kg, po administered 11 days after tumor implantation qd for 14 days; assay type: organism-based; set-up: dose 30 mg/kg, route oral; conditions: in vivo

Structure (SMILES)	IC50 [3]	IC50 [4]	Cmax [5]	AUC (Rattus norvegicus)	half-life [6]	clearance [7]	Vd [8]	bioavailability [9]	also measured
CCN(CC)CCNC(=O)c1c(C)[nH]c(/C=C2\C(=O)Nc3ccc(F)cc32)c1C [SUNITINIB]	–	–	–	–	–	–	–	–	Activity (HT-29 [1]): Dose-dependent effect; inhibition in vivo at 30 mg/kg (HT-29 [2]): 53.8%
Cc1c(/C=C2\C(=O)Nc3ccc(F)cc32)[nH]c2c1C(=O)N(CCN1CCCC1)CC2	3 nM	4 nM	–	–	–	–	–	–	–
CCN(CC)CCN1CCc2[nH]c(/C=C3\C(=O)Nc4ccc(Cl)cc43)c(C)c2C1=O	4 nM	2 nM	–	–	–	–	–	–	–
Cc1c(/C=C2\C(=O)Nc3ccc(F)cc32)[nH]c2c1C(=O)N(CCN1CCOCC1)CCC2	4 nM	5 nM	–	–	–	–	–	–	–
Cc1c(/C=C2\C(=O)Nc3ccc(F)cc32)[nH]c2c1C(=O)N(C[C@H](O)CN1CCOCC1)CCC2 [HENATINIB]	8 nM	11 nM	9030 ng/mL	49.21 ug/hr.ml	3.76 h	21 mL/min/kg	5.1 L/kg	55.2%	Activity (HT-29 [1]): Dose-dependent effect; inhibition in vivo at 10 mg/kg (HT-29 [10]): 51.7%
CCN(CC)CCN1CCCc2[nH]c(/C=C3\C(=O)Nc4ccc(F)cc43)c(C)c2C1=O	4 nM	10 nM	2410 ng/mL	27.61 ug/hr.ml	9.65 h	22.8 mL/min/kg	18.8 L/kg	65.8%	–
CCN(CC)CCN1CCCCc2[nH]c(/C=C3\C(=O)Nc4ccc(F)cc43)c(C)c2C1=O	9 nM	13 nM	–	–	–	–	–	–	–
Cc1c(/C=C2\C(=O)Nc3ccc(F)cc32)[nH]c2c1C(=O)N(C[C@H](O)CN1CCOCC1)CC2	1 nM	8 nM	6110 ng/mL	41.18 ug/hr.ml	3.41 h	17 mL/min/kg	4.13 L/kg	50.7%	–
Cc1c(/C=C2\C(=O)Nc3ccc(F)cc32)[nH]c2c1C(=O)N(CCN1CCOCC1)CC2	1 nM	10 nM	–	–	–	–	–	–	–
CCN(CC)CCN1CCc2[nH]c(/C=C3\C(=O)Nc4ccc(Br)cc43)c(C)c2C1=O	4 nM	3 nM	–	–	–	–	–	–	–
Cc1c(/C=C2\C(=O)Nc3ccc(F)cc32)[nH]c2c1C(=O)N(CCN(C)C)CC2	1 nM	3 nM	–	–	–	–	–	–	–
CCN(CC)CCN1CCc2[nH]c(/C=C3\C(=O)Nc4ccc(F)cc43)c(C)c2C1=O [FAMITINIB]	2 nM	4 nM	450 ng/mL	10.96 ug/hr.ml	18 h	64.5 mL/min/kg	97.4 L/kg	36.7%	Activity (HT-29 [1]): Dose-dependent effect; Activity (Mus musculus [11]): Toxic; Activity (Mus musculus [12]): Toxic; inhibition in vivo at 10 mg/kg (HT-29 [10]): 49.8%

Source: ChEMBL document CHEMBL1275399, “Novel potent orally active multitargeted receptor tyrosine kinase inhibitors: synthesis, structure-activity relationships, and antitumor activities of 2-indolinone derivatives” (J Med Chem, 2010)
